Compound `Oc1c(F)cc(Oc2ncc(C(F)(F)F)cc2F)cc1F` registered a melting point of 125 to 128 °C.

In turn, `CCN(CC)CCN1CCN(CCCN2CCCCC2)C1=C(C#N)C#N` returned a melting point of 78 to 80 °C.

Compound `Cc1nn(-c2c(Cl)cc(C(F)(F)F)cc2Cl)c(N)c1C#N` registered a melting point of 194 to 196 °C.

For `N#Cc1nn(-c2c(Cl)cc(C(F)(F)F)cc2Cl)c(N2CCCC2)c1S(=O)(=O)C(F)(F)F`, the melting point lay within 187 to 189 °C.

The compound `O=C1Cc2ccc(-c3ccccc3)cc2N1` displayed a melting point of 173 to 175 °C.

The compound `C[C@]12CC[C@H]3[C@@H](CCC4=CC(=O)CC[C@@H]43)[C@@H]1CCC21CC(O)CO1` (stereo partly drawn) returned a melting point of 149 to 154 °C.

`CC(C)(Oc1ccc(NC(=O)Nc2ccc(Cl)c(Cl)c2)cc1)C(=O)O` yielded a melting point of 183 to 184 °C.

`CCOC(=O)c1cnc2c(NC(=O)c3c(Cl)cccc3Cl)cccc2c1CC(=O)O` had a melting point of 149 to 159 °C.

Consider `Cc1cc(Cl)cc(C(=O)NNCC(=O)NCc2ccccc2)c1NC(=O)c1cc(Br)nn1-c1ncccc1Cl`, for which the melting point fell in the range of 120 to 121 °C.

Compound `Nc1cccc(-c2ccnc3c(C(=O)c4cccs4)cnn23)c1` had a melting point of 183 to 184 °C.

On to `CCNC(=O)N[C@H]1CC[C@H](CCN2CCN(c3cccc4c3CCC4)CC2)CC1`, for which the melting point fell in the range of 198 to 200 °C.

`CN(C)C(N)=Nc1cc(S(C)=O)ccc1N1CCOCC1` (stereo not drawn) gave a melting point of 160 to 161 °C.

`CN1CC=C(c2c[nH]c3ccc(Oc4ccccc4)cc23)CC1` returned a melting point of 135 to 137 °C.

`CSc1ccc(Cl)c(C(=O)Nc2ccc(-n3nc(C(F)(F)F)cc3C3CC3)cc2)c1` showed a melting point of 172 to 177 °C.

In turn, `Cc1cc(OC2CCCCO2)c(C)cc1OCCCC(C)(C)C(=O)O` (stereo not drawn) yielded a melting point of 122 to 124 °C.

In the case of `Cn1c(CC(C)(C)C(=O)O)c(C(=O)c2ccc(Cl)cc2)c2ccc(OCc3ccc4ccccc4n3)cc21`, the melting point is 203 to 205 °C.

Compound `COc1ccc(C2=CC(=O)CCC2)cc1` showed a melting point of 83 to 85 °C.

As to `C[C@@H](N1CCN(C(=S)Nc2ccccc2)CC1)[C@](O)(Cn1cncn1)c1ccc(F)cc1F`, the melting point was in the range of 106 to 108 °C.

In turn, `CCOC(=O)C(c1ccc(Nc2nc(-c3cccc(NC(=O)c4ccc(C(C)(C)C)cc4)c3C)cn(C)c2=O)cc1)N(C)C(C)C` (stereo not drawn) came in with a melting point of 119 to 120 °C.

The compound `CC(=O)Oc1ccc(C(=O)Nc2cccc(OCc3cccnc3)c2)cc1C(C)(C)C` displayed a melting point of 58 to 62 °C.

The compound `COc1cc2c(cc1Nc1ncc(Cl)c(Nc3ccccc3S(=O)(=O)N3CCC(O)C3)n1)CCN(CC(C)O)CC2` (stereo not drawn) came in with a melting point of 197 to 199 °C.

For `CN(N=C(Cl)c1c(Cl)cccc1Cl)S(=O)(=O)c1ccccc1`, the melting point was 103 to 104 °C.

`CCCC(=O)Nc1cc(Oc2ccc(Cl)cc2)ccc1NC(=NC(=O)OC)NC(=O)OC` displayed a melting point of 201 °C.

Consider `CCCC(O)C1(c2onc(-c3ccc(O)cc3)c2-c2ccccc2)CC1` (stereo not drawn), for which the melting point lay in the range of 139 to 140 °C.

In the case of `CCCn1nnn(-c2cc(OC(C)C)c(F)cc2F)c1=O`, the melting point is 76.5 to 77 °C.

As to `Cc1oc(-c2ccccc2)nc1COc1ccc(CC2SC(=N)NC2=O)cc1` (stereo not drawn), the melting point was in the range of 257 to 258 °C.

`CNC(=S)C1(c2ccccn2)CCCO1` (stereo not drawn) displayed a melting point of 115 °C.

For `COc1cccnc1C(O)c1cc(F)ccc1F` (stereo not drawn), the melting point is 94 to 95 °C.

The compound `COc1ccc(C2=NN(Cc3ccccc3)C(=O)[C@H]3CCCC[C@@H]23)cc1OC1CCCC1` (relative stereo) gave a melting point of 91 to 92 °C.

Turning to `Cn1cc2c(=O)[nH]c(=S)[nH]c2n1`, the melting point amounted to 200 °C.

Compound `COc1ccc(C(=O)CBr)c(F)c1` showed a melting point of 67 to 69 °C.

As for `S=c1cc(N2CCOCC2)ss1`, the melting point turned out to be 60 °C.

For `C=C(C)C#Cc1ccc2c(c1)NC(=O)CC(c1cccc(C#N)c1)=N2`, the melting point amounted to 231 °C.

With `Cc1c(C(=O)Nc2ccc(N3CCN(CCCO)CC3)c(C#N)c2)cnn1-c1ccc(Cl)cc1`, the melting point amounted to 213 °C.

On to `COCc1ncccc1CN(CCn1ccc2occc2c1=O)Cc1ccc2c(c1)NC(=O)C(C)(C)C(=O)N2CC(C)C`, for which the melting point is 149 to 151 °C.

Compound `c1ccc(CSc2ccccc2C2=NOCCO2)cc1` displayed a melting point of 73 to 77 °C.

The compound `CCCCOc1cc(/C=C(\OCC)C(=O)O)ccc1OCCc1ccc(OS(=O)(=O)CCCC)c(OC)c1` came in with a melting point of 94 °C.

As for `COc1ccc(C2CNC(=O)C2)cc1OCCC(C)N1CCN(c2ccccc2)CC1` (stereo not drawn), the melting point was in the range of 88 to 90 °C.

For the compound `O=C(Nc1ccc2ccc(-c3ccc(Cl)cc3)nc2n1)c1ccccc1`, the melting point is 156 to 158 °C.

With `Cc1cc(O)n2nc(S(=O)(=O)Nc3c(Cl)cccc3Cl)nc2n1`, the melting point turned out to be 302 °C.

Regarding `CC(C)CN1C(=O)[C@@H](CCCl)O[C@H](c2ccccc2Cl)c2cc(Cl)ccc21` (relative stereo), the melting point fell in the range of 138 to 140 °C.

For `Cc1ccc(C2c3c(C)c(N4CCN(c5cccnc5)CC4)c(C)c(C)c3OC2(C)C)cc1` (stereo not drawn), the melting point fell in the range of 136 to 137 °C.

The compound `Nc1c(CCO)cccc1C(O)c1ccc(Cl)cc1` (stereo not drawn) came in with a melting point of 132 to 134 °C.

Compound `Cc1nc2c(OC3SCC(O)C(O)C3O)cccc2n1C` (stereo not drawn) returned a melting point of 153 °C.

In turn, `CS(=O)(=O)Nc1cc(NC(=O)CCl)ccc1Oc1ccccc1` came in with a melting point of 126 to 128 °C.

With `O=C(O)COc1ccc2c(c1)CC(NS(=O)(=O)c1ccc(Cl)cc1)C2` (stereo not drawn), the melting point was 170 to 172 °C.

`Cc1nc(=O)n(-c2cc(C(=O)OC(C)C)c(Cl)cc2F)c(N)c1C#N`: the melting point fell in the range of 255 to 257 °C.

`CC#CCOc1ccc(S(=O)(=O)C(C(=O)NO)c2cccc(Cl)c2)cc1` (stereo not drawn) yielded a melting point of 50 °C.

As to `CCC(=O)c1ccc(OC(C)c2ccc(Cl)cc2)cc1` (stereo not drawn), the melting point lay within 70 to 71 °C.

In turn, `CCOC(C)OC1CCC2(C)C3=C(CCC2C1(C)C)C1=CCC(C(C)CSc2ccccc2)C1(C)CC3` (stereo not drawn) registered a melting point of 101 to 107 °C.

`COc1ccc2cc(-c3ccc(-c4ccccc4)[nH]3)ccc2c1`: the melting point lay within 208 to 210 °C.

As for `COc1cc(C(C)=O)ccc1OC/C=C\CCl`, the melting point was in the range of 64 to 66 °C.

In turn, `CC(=O)Nc1ccc(-c2ccc(CC34CCCN3C(=O)N(c3cc(Cl)cc(Cl)c3)C4=O)cc2)cc1` (stereo not drawn) showed a melting point of 124 °C.

As for `CCCCCc1cnc(-c2ccc(F)cc2)nc1`, the melting point is 28.6 °C.

The compound `O=C1CC(c2ccc(F)cc2)CC(=O)O1` showed a melting point of 99 to 104 °C.

Compound `COc1cc2c(cc1C=NO)C(C)(C)CCC2(C)C` registered a melting point of 182 to 183 °C.

`CCOC(=O)C(CC(=O)O)(Cc1cn(C)c2ccccc12)C(=O)OCC` had a melting point of 127 to 130 °C.

`O=c1oc2c(O)c(O)ccc2c2cc(O)c(O)cc12` registered a melting point above 250 °C.

With `COc1ccc(Br)c2c1C1C(=O)NC(=O)C1CC2` (stereo not drawn), the melting point is 191 to 193 °C.

On to `O=C(O)c1ccnc(Br)c1`, for which the melting point turned out to be 214 °C.

`O=C(CCCCl)Nc1nnc(-c2ccccc2)s1` came in with a melting point of 159 to 162 °C.

For the compound `CC(=O)NCCC1CCNCC1`, the melting point was 60 °C.

Regarding `C=CCC(Cc1ccc(Cl)c(Cl)c1)NC(=O)c1cc(C)cc(C)c1` (stereo not drawn), the melting point fell in the range of 155 to 157 °C.

`CCCCCCC(C(=O)O)n1cnc([N+](=O)[O-])c1` (stereo not drawn) returned a melting point of 112 to 114 °C.

Consider `Cc1ccn(-c2ccc(C(=O)N3Cc4cccnc4Nc4ccccc43)c(F)c2)n1`, for which the melting point lay within 122 to 125 °C.

`IC#CCSc1ccncc1` registered a melting point of 140 °C.

Take `CC1Cn2c(=O)[nH]c3cccc(c32)CN1CCc1ccccc1` (stereo not drawn): the melting point amounted to 150 °C.

`Cc1cc(OCc2coc(/C=C/c3ccc(Cl)cc3)n2)ccc1CS(=O)CCc1ccnn1C` (stereo not drawn) had a melting point of 169 to 171 °C.

On to `COC(=O)C1=C(C)NC(C)=C(C(=O)OCCC#N)C1c1cccc2c(=O)c(C)c(-c3ccccc3)oc12` (stereo not drawn), for which the melting point was in the range of 190 to 192 °C.

With `Cc1c(-c2cn(C)c(=O)c(Nc3ccc(C4C(=O)N(C)CCN4C(=O)OC(C)(C)C)cc3)n2)cccc1N1Cc2cc(C(C)(C)C)sc2C1=O` (stereo not drawn), the melting point lay in the range of 120 to 123 °C.

With `FC(F)(F)c1cc(-c2ccc(Cl)cc2)nc2c(I)cnn12`, the melting point is 155 °C.

In turn, `CSc1ncc2cc(CBr)c(=O)n(C3CCCC3)c2n1` displayed a melting point of 103 to 105 °C.

Consider `Cc1cc(C)nc(-n2nc(C)nc2N)n1`, for which the melting point worked out at 237 °C.

Consider `COc1cccc2c1[nH]c(=O)n1c(=O)[nH]nc21`, for which the melting point fell in the range of 308 to 310 °C.

In turn, `CCOC(=O)C1=C(C)NC(=NC#N)NC1c1cccc([N+](=O)[O-])c1` (stereo not drawn) showed a melting point of 250 to 252 °C.

On to `CCCN(CCN1CCN(c2ccccc2OC)CC1)C1CCc2ncsc2C1` (stereo not drawn), for which the melting point turned out to be 136 °C.

`FC(F)(F)c1ccc(-c2cc(C(F)(F)F)n3ncc(-c4nc(-c5cccnc5)no4)c3n2)cc1`: the melting point was found to be 199 °C.

Take `COc1cc(C)c(C(=O)CCCCCCCCCCO)c(O)c1OC`: the melting point was determined as 81 °C.

`CCc1c(NC(=O)c2cc(S(C)(=O)=O)ccc2OCC(C)C)c(C(N)=O)nn1C1CCN(C(=O)OC(C)(C)C)CC1` gave a melting point of 134 to 141 °C.

The compound `COC(=O)c1ccccc1S(=O)(=O)NC(=O)Nc1nc(C)cc(CF)n1` gave a melting point of 181 to 186 °C.

As for `O=C(O)COc1ccc(CC(Cc2ccccc2)NS(=O)(=O)c2ccc(Cl)cc2)cc1` (stereo not drawn), the melting point is 150 to 151 °C.

`COc1ccc(Sc2ccc(CC(=O)O)cc2)cc1`: the melting point fell in the range of 85 to 87 °C.

As to `Cc1cn(-c2nc(C)cc3[nH]c(=O)ccc23)cn1`, the melting point was 307 to 308 °C.

For `COc1ccc(C2(c3ccc(N(C)C)cc3)OC(=O)c3ccc(N(C)C)cc32)cc1` (stereo not drawn), the melting point fell in the range of 156 to 161 °C.

Compound `O=c1c2cccnc2n(-c2cccc(CO)c2)c(=O)n1Cc1cccnc1` returned a melting point of 197 to 198 °C.

`Cc1cccc2c1CCC2NC(=S)NCCO` (stereo not drawn) registered a melting point of 90 to 93 °C.

For the compound `COc1ccccc1CN1CCC(=O)C(C2c3ccccc3Oc3ccccc32)C1` (stereo not drawn), the melting point lay in the range of 96 to 97 °C.

`COc1ccccc1NC(=O)CN1CCN(c2ncccc2C#N)CC1` registered a melting point of 174 to 175 °C.
